# Results reported in patent US8673882B2, “Inhibitors of autotaxin” (University of Tennessee Research Foundation, priority 2011, dated 2014).
# What was measured:
# [1] = test system: MM1 hepatocarcinoma cells; experiment: Invasion of mesothelial cell monolayer by MM1 cells; format: cell-based, rat
# From the text: (§1) Cancer metastasis is a complex process that cannon be accurately modeled in vitro. Models that utilize cellular monolayers for the invasion of carcinoma cell come the closest to the situation in vivo. Two different cell monolayers, mouse mesothelium and human vascular endothelium were used to examine the role of ATX in the invasion of MM1 hepatocarcinoma cells and the reduction of such invasion by the chemical compounds of the present application. The mesothelial monolayer is an accepted model for invasion of body cavities lined by serous cells whereas, the HUVEC monolayer is considered to be an in vitro model of hematogenous invasion of carcinomas.
# (§2) Highly invasive MM1 cells originally isolated from the AH130 rat hepatoma cells were utilized in these studies. The cells were grown in suspension in DMEM supplemented with 10% fetal bovine serum, 2 mM glutamine, 100 units/ml penicillin and 10 μg/ml streptoinycin. Mesothelial cells were isolated and cultured from C57BL/6 mice. Human umbilical cord vascular endothelial cells (HUVEC) were obtained from VEC Technologies Inc., (Rensselaer, N.Y., USA) and were grown in MCDB-131 complete medium containing 10% fetal bovine serum. 90 μg/ml heparin, 10 ng/ml EGF, 1 μg/ml hydrocortisone, 0.2 mg/ml EndoGrowth supplement, 100 units/ml penicillin G, 100 μg/ml streptomycin and 25 μg/ml amphotericin B (all from VEC Technologies). Tumor cell invasion was performed by seeding 1.3×10^5 HUVECs (passage 7) into each well of a 12-well plate pre-coated with 0.2% gelatin (Sigma) and cultured for 2 days to form a confluent monolayer. Mesothelial cells harvested from two-three mice were initially plated in 6-well plates and grown to confluency in DMEM medium supplemented with 10% fetal bovine serum in the presence of 100 units/ml penicillin G and 10 μg/ml streptomycin. When confluent, the mesothelial cells were split into three equal aliquots (˜5×10^4 cells each) and plated to three wells of a 12-well plate and grown to confluence.
# Invasion of MM1 cells of Example 53 was determined and the effect of compounds of the present application in reducing the invasion was determined. For all invasion assays, MM1 cells were pre-stained with 2 μg/ml calcein AM (Invitrogen, USA) for 2 h, rinsed once, and seeded at a density of 5×10^4 cells/well over the monolayers. […] The number of tumor cells that penetrated the monolayer was photographed under a NIKON TiU inverted microscope using phase-contrast and fluorescence illumination in a minimum of five non-overlapping fields at 100× magnification. The fluorescent images were overlayed on top of the phase contrast images using the Elements BR software (version 3.1x) and the invaded MM1 cells showing the characteristic flattened morphology in the plane of focus underneath the monolayer were counted. […]
# [2] = test system: MM1 hepatocarcinoma cells; experiment: Invasion of HUVEC monolayer by MM1 cells; format: cell-based, rat; details: 1.5 μM LPC; FIG. 14
# From the text: as §1, §2
# Invasion of MM1 cells of Example 53 was determined and the effect of compounds of the present application in reducing the invasion was determined. For all invasion assays, MM1 cells were pre-stained with 2 μg/ml calcein AM (Invitrogen, USA) for 2 h, rinsed once, and seeded at a density of 5×10^4 cells/well over the monolayers. Tumor cells were left to invade the HUVEC monolayer for 24 h in MCDB-131 complete media containing 1% serum with or without addition of 1.5 μM LPC. MM1 cells were plated on the mesothelial monolayers in 2% fetal bovine serum-supplemented DMEM medium in the presence of 100 units/ml penicillin G and 10 μg/ml streptomycin with or without 1.5 μM LPC (5 μM for the mesothelium cells) and invasion was allowed to proceed for 20 h. The day after MM1 cell seeding, non-invaded tumor cells were removed by repeated five rinses of the HUVEC monolayer (three rinses for the mesothelial monolayers) with PBS (containing Ca^2+ and Mg^2+) followed by fixation with 10% buffered formalin. The number of tumor cells that penetrated the monolayer was photographed under a NIKON TiU inverted microscope using phase-contrast and fluorescence illumination in a minimum of five non-overlapping fields at 100× magnification. The fluorescent images were overlayed on top of the phase contrast images using the Elements BR software (version 3.1x) and the invaded MM1 cells showing the characteristic flattened morphology in the plane of focus underneath the monolayer were counted. […]
# [3] = test system: breast and colon cancers; details: xenograft models, Zhang et al 2009; cited from earlier work
compound,measurement,setting,value
"lysophosphatidylcholine [LPC, reference compound]",effect of LPC on invasion in the co-culture,"[1]; FIG. 12d, mesothelial cell layers",increases invasion in a dose-dependent manner
"CCCCCCCCCCCCCc1ccc2cc(CP(=O)(OC)OC)ccc2c1 [Compound 33b, Dimethyl-6-tridecylnaphthalen-2-yl-methylphosphonate]",MM1 cell invasion of the mesothelial monolayer,"[1]; with LPC, FIG. 12 panel E",inhibition
same,LPC-dependent invasion of the HUVEC monolayer,[2],blockage
LPA bromophosphonate [LPA-BP],metastasis of breast and colon cancers,[3],inhibit the metastasis
